Patent publication US7998936B2, “Use of timosaponin Bll in the preparation of a medicament or product for the prevention and treatment of stroke” (Institute of Radiation Medicine, Academy of Military …, priority 2004, dated 2011)

Columns and labels:
[1] = tested on: TNF-α; assay: ELISA of TNF-α in brain tissue of cerebral ischemia-reperfusion rats; settings: brain homogenate, 12 mg/kg by gavage 5 days
[2] = tested on: IL-10; assay: ELISA of IL-10 in brain tissue of cerebral ischemia-reperfusion rats; settings: brain homogenate, 12 mg/kg by gavage 5 days
[3] = tested on: acute blood stagnation model rats; assay: Erythrocyte aggregation and deformability in acute blood stagnation model rats; assay type: in vivo, rat; settings: 12 mg/kg
Protocol: MAO Teng-min's methods were modified to prepare the model. Rats were subcutaneously injected with 0.8 mg/kg adrenaline twice at 1 h and 5 h after administration on the fifth day, and were placed into ice-water at 4° C. for 5 min at 2 h after the first injection of adrenaline.
To 40 μl of heparinized blood, 1 ml of deforming solution was added and mixed thoroughly. A sample of 0.8 ml was tested in an erythrocyte aggregation/deformability tester, and erythrocyte deformability was expressed as maximal erythrocyte deformation index and area under curve (SSS). Another 0.8 ml of anticoagulated blood was tested in an erythrocyte aggregation/deformability tester, and erythrocyte aggregation was expressed as maximal erythrocyte aggregation index (MAXD) and area under curve ([…]).

[4] = tested on: IL-1β; assay: ELISA of IL-1β in brain tissue of cerebral ischemia-reperfusion rats; settings: brain homogenate, 12 mg/kg by gavage 5 days
[5] = tested on: TGF-β; assay: ELISA of TGF-β in brain tissue of cerebral ischemia-reperfusion rats; settings: brain homogenate, 12 mg/kg by gavage 5 days
[6] = tested on: Middle Cerebral Artery Thrombosis (MCAT) Rats; assay: Water content in brain tissues in middle cerebral artery thrombosis rats; assay type: in vivo, rat; settings: 24 h after operation, 12 mg/kg
[7] = tested on: acute blood stagnation model rats; assay: Whole blood and plasma viscosities in acute blood stagnation model rats; assay type: in vivo, rat; settings: 12 mg/kg by gavage 5 days
From the text: MAO Teng-min's methods were modified to prepare the model.

[8] = tested on: FeCl3-Induced Middle Cerebral Artery Thrombosis (MCAT) Rats; assay: Neurological symptom score in middle cerebral artery thrombosis rats; assay type: in vivo, rat; settings: 0.6 mg/kg by gavage 7 days, full score 4
From the text: (§1) Tamura and Liu's methods were used with modifications to prepare the model. Rats were anesthetized by intraperitoneal injection of 10% chloral hydrate (0.35 g/kg); and fixed with right arm reclining. An arc incision of about 1.5 cm in length was made at the midpoint between the link of paropia and external auditory canal and temporalis was removed to expose the temporal bone. […] The surrounding-tissues were protected with a piece of plastic film. A small piece of quantitative filter paper, which had absorbed 10 μL of a 50% ferric chloride solution, was applied on this segment of middle cerebral artery. The filter paper was removed after 30 min, and local tissues were rinsed with normal saline solution, followed by suture layer by layer. Then the experimental rats were put back to rearing cage. The temperature was controlled at 24° C. For the sham-operation group, the operation procedures were the same as the model group except for the application of the ferric chloride solution.
The experimental animals were tested for behaviors 6 h and 24 h after operation according to the Sederson's method with modifications. Criteria: (1) The tail of the rat was lifted to observe the flexibility of the forelimb, with both forelimbs symmetrically stretching forward scored as 0, and occurrence of any or all of shoulder inflexion, elbow inflexion, shoulder intorsion in the contralateral fore-limb opposite to the operation side scored as 1. (2) The animal was placed on a plane, and its shoulders were pushed to the opposite direction to check resistance, Equivalency and strong resistance in both sides was scored as 0, and reduction in resistance in the contralateral side was scored as 1. (3) Both forelimbs of the rat were placed on wire gauze to observe the muscular tension. […] According to the criteria above, the full score is 4, and the higher the score is, the more serious the behavior disorder of the animal is.

[9] = tested on: FeCl3-Induced Middle Cerebral Artery Thrombosis (MCAT) Rats; assay: Cerebral infarct size (TTC staining) in FeCl3-induced middle cerebral artery thrombosis rats; assay type: in vivo, rat; settings: 0.6 mg/kg by gavage 7 days, x ± s
From the text: as §1
After behavior assessment, the animals were decapitated to remove the brains. The olfactory bulb, cerebellum and lower brain stem were removed, and the remaining part was cut into 5 coronal sections below 4° C. The sections were immediately placed into a TTC staining solution (containing 1.5 m 4% TTC, 0.1 ml 1M K2HPO4 and water (balance) per 5 ml staining solution), followed by incubation in dark at 37° C. for 30 min. Then, the sections were transferred into a solution of 10% formaldehyde and incubated in dark for 24 h. After staining, the non-ischemic areas were rose red, and the infracted areas were white. The white tissues were carefully collected and weighed. The extent of cerebral infarction was expressed as a percentage (%) of infracted tissue to the weight of total brain and also to the affected side of brain.

Molecule	TNFα [1] [pg/mL]	IL-10 [2] [pg/mL]	Erythrocyte aggregation SS ([3]; area under curve)	Erythrocyte deformability SSS ([3]; area under curve)	Erythrocyte aggregation MAXD ([3]; maximal erythrocyte aggregation index)	Erythrocyte deformability MAXDI ([3]; maximal erythrocyte deformation index)	IL-1β [4] [pg/mL]	TGF-β [5] [pg/mL]	Water content of affected hemisphere [6] [%]	Water content of unaffected hemisphere [6] [%]	Plasma viscosity (100 S^−1) [7]	Whole blood viscosity 1 S^−1 [7]	Whole blood viscosity 5 S^−1 [7]	Whole blood viscosity 30 S^−1 [7]	Whole blood viscosity 200 S^−1 [7]	neurological symptomatic score 6 h ([8]; 6 h after operation)	neurological symptomatic score 24 h ([8]; 24 h after operation)	cerebral infarct size percentage to affected side [9] [%]	cerebral infarct size percentage to total brain [9] [%]
COCCOC(=O)C1=C(C)NC(C)=C(C(=O)OC(C)C)C1c1cccc([N+](=O)[O-])c1 (stereo not shown) [Nimodipine, reference compound]	7.92 ± 0.56	4.98 ± 3.54	160.38 ± 16.50	353.92 ± 15.83	0.80 ± 0.09	0.70 ± 0.03	9.01 ± 0.81	12.01 ± 2.54	80.37 ± 0.73	79.44 ± 0.41	1.41 ± 0.14	30.45 ± 8.74	12.34 ± 2.58	6.47 ± 0.92	4.51 ± 0.55				
Hydergine [reference compound]																1.91 ± 0.83	1.55 ± 0.69	3.75 ± 1.38	1.98 ± 0.72
